Results as given in PubChem BioAssay (NCI).
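Growth conditions: 96-well plates. Treatment: test compound, 48 hours, 5 concentrations. Analysis: linear interpolation between bracketing concentrations; unreached endpoints set to highest concentration. The concentration for 50% growth inhibition is given as GI50. TGI: concentration producing complete growth inhibition.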

Key:
Assay in all cases: NCI anticancer screen, dose series, 48 h
T-47D breast = tested on: T-47D breast
NCI-H522 lung = tested on: NCI-H522 lung
A498 renal = tested on: A498 renal
MDA-MB-435 = tested on: MDA-MB-435
DU-145 prostate = tested on: DU-145 prostate
MDA-N = tested on: MDA-N
OVCAR-8 ovarian = tested on: OVCAR-8 ovarian
OVCAR-5 ovarian = tested on: OVCAR-5 ovarian
EKVX NSCLC = tested on: EKVX NSCLC
SF-539 CNS = tested on: SF-539 CNS

Q: What does the source list for `Cc1ccc(S(=O)(=O)NCCCSCCN)cc1`?
A: TGI (T-47D breast): > 100 µM; TGI (NCI-H522 lung): > 100 µM; TGI (A498 renal): > 100 µM; TGI (MDA-MB-435): > 100 µM; TGI (DU-145 prostate): > 100 µM; TGI (MDA-N): > 100 µM; TGI (OVCAR-8 ovarian): > 100 µM

Q: Which results are given for `O=C(Nc1ccc(C(F)(F)F)cc1[N+](=O)[O-])C(=O)Nn1c(=S)[nH]c2ccccc2c1=O`?
A: TGI (NCI-H522 lung): > 100 µM; TGI (A498 renal): > 100 µM; TGI (OVCAR-5 ovarian): > 100 µM; TGI (EKVX NSCLC): > 100 µM; TGI (SF-539 CNS): > 100 µM; TGI (OVCAR-8 ovarian): > 100 µM

Q: How did the GI50 (T-47D breast) turn out when `CC(C)N(CCNc1nc(C(Cl)(Cl)Cl)nc2cc(Cl)ccc12)C(C)C` was run?
A: 2.24 µM

Q: And the TGI (T-47D breast)?
A: 5.08 µM

Q: And the GI50 (NCI-H522 lung)?
A: 1.16 µM

Q: And the TGI (NCI-H522 lung)?
A: 2.63 µM

Q: What about the GI50 (A498 renal) of the same compound?
A: 1.27 µM

Q: And the TGI (A498 renal)?
A: 2.66 µM

Q: What about the GI50 (MDA-MB-435) of the same compound?
A: 1.71 µM

Q: And the TGI (MDA-MB-435)?
A: 3.47 µM

Q: And the GI50 (OVCAR-5 ovarian)?
A: 1.16 µM

Q: And the TGI (OVCAR-5 ovarian)?
A: 2.48 µM

Q: And the GI50 (DU-145 prostate)?
A: 1.61 µM

Q: What about the TGI (DU-145 prostate) of the same compound?
A: 3.76 µM

Q: What about the GI50 (EKVX NSCLC) of the same compound?
A: 1.57 µM

Q: And the TGI (EKVX NSCLC)?
A: 4.32 µM

Q: What about the GI50 (SF-539 CNS) of the same compound?
A: 1.82 µM

Q: What about the TGI (SF-539 CNS) of the same compound?
A: 3.38 µM

Q: What about the GI50 (OVCAR-8 ovarian) of the same compound?
A: 1.83 µM

Q: And the TGI (OVCAR-8 ovarian)?
A: 3.4 µM

Q: For `OCC1NC(CO)C(O)C1O` (stereo unspecified), which TGI (T-47D breast) is on record?
A: > 100 µM

Q: And the TGI (A498 renal)?
A: > 100 µM

Q: And the TGI (MDA-MB-435)?
A: > 100 µM

Q: And the TGI (OVCAR-5 ovarian)?
A: > 100 µM

Q: What about the TGI (DU-145 prostate) of the same compound?
A: > 100 µM

Q: What about the TGI (MDA-N) of the same compound?
A: > 100 µM

Q: And the TGI (OVCAR-8 ovarian)?
A: > 100 µM

Q: For `O=S1(=O)C[C@H](NCc2ccccc2)[C@H](NCc2ccccc2)C1`, which TGI (T-47D breast) is on record?
A: 86.4 µM

Q: And the TGI (NCI-H522 lung)?
A: 68.2 µM

Q: And the TGI (MDA-MB-435)?
A: > 100 µM

Q: And the TGI (OVCAR-5 ovarian)?
A: > 100 µM

Q: And the TGI (DU-145 prostate)?
A: > 100 µM

Q: What about the TGI (MDA-N) of the same compound?
A: > 100 µM

Q: And the TGI (EKVX NSCLC)?
A: > 100 µM

Q: And the TGI (SF-539 CNS)?
A: > 100 µM

Q: What about the TGI (OVCAR-8 ovarian) of the same compound?
A: > 100 µM

Q: `COc1ccc(CCn2ccc(C)n2)c(OC)c1` was tested. Which TGI (T-47D breast) did it give?
A: > 100 µM

Q: What about the TGI (MDA-MB-435) of the same compound?
A: > 100 µM

Q: And the TGI (OVCAR-5 ovarian)?
A: > 100 µM

Q: And the TGI (DU-145 prostate)?
A: > 100 µM

Q: And the TGI (MDA-N)?
A: > 100 µM

Q: And the TGI (EKVX NSCLC)?
A: > 100 µM

Q: And the TGI (SF-539 CNS)?
A: > 100 µM

Q: What about the TGI (OVCAR-8 ovarian) of the same compound?
A: > 100 µM

Q: How did the TGI (NCI-H522 lung) turn out when `CC=C/C=C/[C@@H]1O[C@](O)([C@H](CC)C(=O)NC/C=C/C=C(\C)[C@@H](OC)[C@@H](C)[C@@H]2O[C@H](/C=C/C=C/C=C(\C)C(=O)c3c(O)cc[nH]c3=O)[C@H](O)[C@@H]2O)[C@H](O)[C@H](O)C1(C)C` was run?
A: > 100 µM

Q: What about the TGI (A498 renal) of the same compound?
A: > 100 µM

Q: What about the TGI (MDA-MB-435) of the same compound?
A: > 100 µM

Q: And the TGI (OVCAR-5 ovarian)?
A: > 100 µM

Q: And the TGI (EKVX NSCLC)?
A: > 100 µM

Q: What about the TGI (SF-539 CNS) of the same compound?
A: > 100 µM

Q: And the TGI (OVCAR-8 ovarian)?
A: > 100 µM

Q: With `CC(=O)OC/C=C\Cn1ncc(=O)[nH]c1=O` as the compound, how does the TGI (T-47D breast) read?
A: 69.9 µM

Q: What about the TGI (NCI-H522 lung) of the same compound?
A: 32.4 µM

Q: And the TGI (A498 renal)?
A: 31.9 µM

Q: What about the TGI (MDA-MB-435) of the same compound?
A: 39.3 µM

Q: And the TGI (OVCAR-5 ovarian)?
A: 32.3 µM

Q: What about the TGI (DU-145 prostate) of the same compound?
A: 42.8 µM

Q: And the TGI (MDA-N)?
A: 31.8 µM

Q: What about the TGI (EKVX NSCLC) of the same compound?
A: 38.8 µM

Q: What about the TGI (SF-539 CNS) of the same compound?
A: 35.7 µM

Q: And the TGI (OVCAR-8 ovarian)?
A: 66.1 µM

Q: Which GI50 (T-47D breast) does the source give for `Fc1ccc(C2CC(c3cccc(Nc4ccncc4)c3)=NN2c2ccccc2)cc1` (stereo unspecified) here?
A: 2.04 µM

Q: What about the TGI (T-47D breast) of the same compound?
A: 4.62 µM

Q: What about the GI50 (NCI-H522 lung) of the same compound?
A: 1.81 µM

Q: And the TGI (NCI-H522 lung)?
A: 3.98 µM

Q: And the GI50 (A498 renal)?
A: 0.446 µM

Q: And the TGI (A498 renal)?
A: 6.92 µM

Q: And the GI50 (MDA-MB-435)?
A: 1.63 µM

Q: What about the TGI (MDA-MB-435) of the same compound?
A: 3.14 µM

Q: What about the GI50 (OVCAR-5 ovarian) of the same compound?
A: 2.18 µM

Q: What about the TGI (OVCAR-5 ovarian) of the same compound?
A: 5.27 µM

Q: And the GI50 (DU-145 prostate)?
A: 1.98 µM

Q: What about the TGI (DU-145 prostate) of the same compound?
A: 3.91 µM

Q: What about the GI50 (EKVX NSCLC) of the same compound?
A: 1.99 µM

Q: And the TGI (EKVX NSCLC)?
A: 5.71 µM

Q: And the GI50 (SF-539 CNS)?
A: 1.65 µM

Q: And the TGI (SF-539 CNS)?
A: 3.06 µM

Q: For `CCOP(=O)(OCC)C(Cc1c[nH]c2ccccc12)C(=O)O` (stereo unspecified), which TGI (T-47D breast) is on record?
A: > 100 µM

Q: What about the TGI (NCI-H522 lung) of the same compound?
A: > 100 µM

Q: And the TGI (A498 renal)?
A: > 100 µM

Q: What about the TGI (MDA-MB-435) of the same compound?
A: > 100 µM

Q: And the TGI (OVCAR-5 ovarian)?
A: > 100 µM

Q: And the TGI (DU-145 prostate)?
A: > 100 µM

Q: What about the TGI (MDA-N) of the same compound?
A: > 100 µM

Q: And the TGI (OVCAR-8 ovarian)?
A: > 100 µM
